Laboratory results as given in patent US9464291B2, “Methods and compositions for the treatment of cancer” (University of South Alabama, priority 2012, dated 2016).

Test system: OPN
Test: Secreted OPN protein, immunoblot of conditioned medium, MDA-MB-435
Type: cell-based, human
Details: 10 μM and 20 μM cyclopamine
Method: Stable vector only and non-targeting (scrambled control) transfectants were also generated. Stable transfectants were selected on medium supplemented with 500 μg/ml Geneticin (Invitrogen). The four GLI1-knocked down clones chosen were based on the extent of GLI1 knockdown and were termed KO1, KO2, KO3, and KO4. The expression of OPN was restored in the KO1 cells by transfecting with pcDNA3.1-OPN. A corresponding vector-only transfectant was also generated. Transfectants were selected on medium containing Geneticin (500 μg/ml) and hygromycin (750 μg/ml). Serum-free conditioned medium harvested from approximately 3.0×10^6 cells after 24 hr was assayed for OPN by immunoblotting.
Western Blotting Analysis—Whole cell lysates were collected in Nonidet P-40 buffer (150 mM NaCl, 50 mM Tris, 1% Nonidet P-40). Isolation of cytosolic and nuclear fractions was done as previously reported (15). Total protein (30 μg) was resolved by SDS-PAGE gel and transferred to polyvinylidene difluoride membranes. […] Secreted OPN was assessed by loading an equal quantity of protein from the serum-free conditioned medium. […]

CC1=C2C[C@H]3[C@@H](CC=C4C[C@@H](O)CC[C@@]43C)[C@@H]2CC[C@]12O[C@@H]1C[C@H](C)CN[C@H]1[C@H]2C [cyclopamine]
OPN protein in the secretome: decreased levels of OPN protein
